Literature values, collected in publication PMC9370779, “Traditional Medicinal Uses, Phytochemistry, Biological Properties, and Health Applications of Vitex sp” (Plants, 2022).
Entries after “also recorded” stand apart in the source; their conditions may differ.

How the values were obtained:
T. b rhodesiense = system: T. b rhodesiense; set-up: method as in PMID 25886869
[1] = system: LPS-stimulated NO production
Plasmodium falciparum = system: Plasmodium falciparum; set-up: method as in PMID 32438132
[2] = system: human colorectal carcinoma (HCT-116) cells; set-up: method as in PMID 26034885
[3] = system: LPS-induced NO production; set-up: method as in PMID 31302252

Compound: COc1cc(-c2oc3cc(O)cc(O)c3c(=O)c2OC)ccc1O [Compound 122, 2-(5′-methoxyphenyl)-4′,5,7-trihydroxy-3-methoxychromen-4-one]
- trypanocidal activity (T. b rhodesiense): All compounds exhibited moderate trypanocidal activity against T. b rhodesiense

Compound: O=C(OC[C@H]1O[C@@H](Oc2ccc(O)cc2)[C@H](O)[C@@H](O)[C@@H]1O)c1ccc(O)cc1 [Compound 156, breynioside A]
- antioxidant activity via ABTS radical scavenging assay: Exhibited antioxidant and NO inhibitory activities.
- inhibitory activity on LPS-stimulated NO production [1]: Exhibited antioxidant and NO inhibitory activities.

Compound: CC(C)C12C=CC3(OO1)C(CCC1C(C)(C)CCCC13C)C2 (stereo not drawn) [Compound 101, abieta-11(12)-ene-9β,13β-endoperoxide]
- times more active than compound 100 (Plasmodium falciparum; Plasmodium falciparum): 54

Compound: 2-(3′,4′-dimethoxyphenyl)-7-hydroxychromen-4-one [Compound 125]
- trypanocidal activity (T. b rhodesiense): All compounds exhibited moderate trypanocidal activity against T. b rhodesiense

Compound: CC(C)C12C=CC3(OO1)C(CCC1C(C)(C)CCCC13C)C2 (stereo not drawn) [Compound 100, abieta-11(12)-ene-9α,13α-endoperoxide]
- antimalarial activity (in words) (Plasmodium falciparum): exhibited antimalarial activity

Compound: C=C1CC(O)C2C(C)(C)CCCC2(C)C1CC(O)C1=CC(=O)OC1O (centres unmarked) [Compound 72, vitexolide B]
- cytotoxic activity against HCT-116 cells [2]: cytotoxic activities; also recorded: Exhibited cytotoxic activity on the HCT-116 cell lines

Compound: C=CC1(C)CCC2C(C)(CCC3C(C)(C)CCCC32C)O1 (centres unmarked) [Compound 102, 9αH-manoyl oxide]
- antimalarial activity (in words) (Plasmodium falciparum): exhibited antimalarial activity

Compound: C=C1CC(O)C2C(C)(C)CCCC2(C)C1CC(O)C1CC(=O)OC1O (centres unmarked) [Compound 73, vitexolide C]
- cytotoxic activity against HCT-116 cells [2]: cytotoxic activities; also recorded: Exhibited cytotoxic activity on the HCT-116 cell lines

Compound: CC(C)[C@@]12C=C[C@@]3(OO1)[C@@H](CCC1C(C)(C)C[C@H](OC(=O)CC(=O)O)C[C@@]13C)C2 (some centres unmarked) [Compound 100a]
- antimalarial activity (in words) (Plasmodium falciparum): exhibited antimalarial activity

Compound: COc1cc(O)c2c(=O)c(OC)c(-c3ccc(O)cc3)oc2c1 [Compound 123, 2-(4′-hydroxyphenyl)-5-hydroxy-3,7-dimethoxy-chromen-4-one]
- trypanocidal activity (T. b rhodesiense): All compounds exhibited moderate trypanocidal activity against T. b rhodesiense

Compound: COc1cc(O[C@@H]2O[C@H](COC(=O)c3ccc(O)cc3)[C@@H](O)[C@H](O)[C@H]2O)ccc1O [Compound 158, dunnianoside D]
- antioxidant activity via ABTS radical scavenging assay: Exhibited antioxidant and NO inhibitory activities.
- inhibitory activity on LPS-stimulated NO production [1]: Exhibited antioxidant and NO inhibitory activities.

Compound: CC(C)[C@]12C=C[C@]3(OO1)[C@@H](CCC1C(C)(C)C[C@H](OC(=O)CC(=O)O)C[C@@]13C)C2 (some centres unmarked) [Compound 101a]
- antimalarial activity (in words) (Plasmodium falciparum): exhibited antimalarial activity

Compound: O=C(OC[C@H]1O[C@@H](OC(=O)c2ccc(O)cc2)[C@H](O)[C@@H](O)[C@@H]1O)c1ccc(O)cc1 [Compound 157, 1,6-di-O-4-hydroxybenzoyl-β-D-glucopyranoside]
- antioxidant activity via ABTS radical scavenging assay: Exhibited antioxidant and NO inhibitory activities.
- inhibitory activity on LPS-stimulated NO production [1]: Exhibited antioxidant and NO inhibitory activities.

Compound: O=c1c(O)c(-c2ccc(O)cc2)oc2cc(O)cc(O)c12 [Compound 124, 2-(4-hydroxyphenyl)-3,5,7-trihydroxychromen-4-one]
- trypanocidal activity (T. b rhodesiense): All compounds exhibited moderate trypanocidal activity against T. b rhodesiense

Compound: C=C1CC[C@H]2C(C)(C)CCC[C@]2(C)[C@H]1CC(O)/C(C)=C/C(=O)O (some centres unmarked) [Compound 75, vitexolin A]
- cytotoxic activity against HCT-116 cells [2]: cytotoxic activities; also recorded: Exhibited cytotoxic activity on the HCT-116 cell lines

Compound: CC1=C(CCC2=CCOC2=O)[C@@]2(C)CC[C@H](O[C@@H]3O[C@H](CO)[C@@H](O)[C@H](O)[C@H]3O)C(C)(C)[C@@H]2CC1 [Compound 97, (3S,5R,10S)-3-[(β-D-glucopyranosyl)oxy]-labd-8,13-dien-16,15-olide]
- inhibition of LPS-induced NO production (in words) [3]: strong
- IC50 ([3]; read-out: inhibition of NO production, IC50 value): 40.1 ± 1.3 µM
